By inhibition is commonly meant the change of the read-out against control, counted positive when it falls.

We go through two molecules from ChEMBL document CHEMBL5653615 (J Biol Chem, 2013).

Assay [1] addresses RAC-gamma serine/threonine-protein kinase (Homo sapiens) (UniProt Q9Y243). Put plainly: Inhibition of human AKT3 at 1.82 nM by HotSpot assay relative to control.
The target in assay [2] is T1, NUAK family SNF1-like kinase 1 (Homo sapiens) (UniProt O60285).
T1 sequence (whole entry): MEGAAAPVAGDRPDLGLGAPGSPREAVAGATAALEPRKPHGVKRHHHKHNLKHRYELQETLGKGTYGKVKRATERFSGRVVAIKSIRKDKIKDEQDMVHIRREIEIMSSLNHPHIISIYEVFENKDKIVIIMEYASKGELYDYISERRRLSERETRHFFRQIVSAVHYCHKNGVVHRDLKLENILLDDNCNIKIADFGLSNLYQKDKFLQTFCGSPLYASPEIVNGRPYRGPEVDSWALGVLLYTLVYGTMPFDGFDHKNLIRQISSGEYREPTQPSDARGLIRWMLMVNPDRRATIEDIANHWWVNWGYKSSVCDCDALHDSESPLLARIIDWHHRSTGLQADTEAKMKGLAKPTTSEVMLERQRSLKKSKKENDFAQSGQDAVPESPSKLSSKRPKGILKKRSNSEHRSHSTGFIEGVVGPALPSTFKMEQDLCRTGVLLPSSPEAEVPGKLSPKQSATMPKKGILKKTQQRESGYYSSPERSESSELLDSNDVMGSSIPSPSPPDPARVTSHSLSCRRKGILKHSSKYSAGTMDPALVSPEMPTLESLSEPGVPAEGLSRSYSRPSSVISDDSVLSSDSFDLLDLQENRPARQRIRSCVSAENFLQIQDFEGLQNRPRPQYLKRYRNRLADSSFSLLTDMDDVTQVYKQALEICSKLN
The assay is described as follows: Inhibition of human ARK5 at 1.82 nM by HotSpot assay relative to control.

Assay [3] deals with Serine/threonine-protein kinase pim-3 (Homo sapiens) (UniProt Q86V86). The assay is described as follows: Inhibition of human PIM3 at 1.82 nM by HotSpot assay relative to control.
The target in assay [4] is Ribosomal protein S6 kinase beta-1 (Homo sapiens) (UniProt P23443). The assay is described as follows: Inhibition of human RPS6KB1 at 1.82 nM by HotSpot assay relative to control.
Assay [5] deals with T2, Serine/threonine-protein kinase D2 (Homo sapiens) (UniProt Q9BZL6).
T2 sequence (whole entry): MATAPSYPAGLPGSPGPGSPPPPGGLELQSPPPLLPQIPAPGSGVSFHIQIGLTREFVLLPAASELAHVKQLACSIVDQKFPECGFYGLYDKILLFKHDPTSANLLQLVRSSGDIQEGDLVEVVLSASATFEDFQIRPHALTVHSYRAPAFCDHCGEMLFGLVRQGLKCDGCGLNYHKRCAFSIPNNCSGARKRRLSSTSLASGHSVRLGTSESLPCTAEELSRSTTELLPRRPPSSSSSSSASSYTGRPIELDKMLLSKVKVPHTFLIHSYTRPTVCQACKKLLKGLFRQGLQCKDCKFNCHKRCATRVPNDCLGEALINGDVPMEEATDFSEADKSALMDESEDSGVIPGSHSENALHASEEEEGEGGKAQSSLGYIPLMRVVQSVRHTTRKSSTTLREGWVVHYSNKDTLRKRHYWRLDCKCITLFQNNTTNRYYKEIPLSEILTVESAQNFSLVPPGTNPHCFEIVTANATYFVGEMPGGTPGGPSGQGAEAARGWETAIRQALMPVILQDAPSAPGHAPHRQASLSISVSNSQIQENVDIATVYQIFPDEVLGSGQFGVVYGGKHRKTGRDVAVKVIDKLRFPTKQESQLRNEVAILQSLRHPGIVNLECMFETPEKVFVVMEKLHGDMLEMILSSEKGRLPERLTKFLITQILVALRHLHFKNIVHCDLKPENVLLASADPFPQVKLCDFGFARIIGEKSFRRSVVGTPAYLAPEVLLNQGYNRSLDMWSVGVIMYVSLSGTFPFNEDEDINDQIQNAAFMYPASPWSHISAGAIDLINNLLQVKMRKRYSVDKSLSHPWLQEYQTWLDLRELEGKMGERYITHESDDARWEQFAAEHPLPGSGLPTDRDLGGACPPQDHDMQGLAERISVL
Put plainly: Inhibition of human PRKD2 at 1.82 nM by HotSpot assay relative to control.

Assay [6] deals with Serine/threonine-protein kinase SIK2 (Homo sapiens) (UniProt Q9H0K1). The assay is described as follows: Inhibition of human SIK2 at 1.82 nM by HotSpot assay relative to control.
Assay [7] has as its target Platelet-derived growth factor receptor beta (Homo sapiens) (UniProt P09619). The assay is described as follows: Inhibition of human PDGFRb at 1.82 nM by HotSpot assay relative to control.
Assay [8] deals with CDK6/cyclin D3 (Homo sapiens) (UniProt P30281+Q00534). Put plainly: Inhibition of human CDK6/cyclin D3 at 18.6 nM by HotSpot assay relative to control. In kind it is protein-complex assay.
The target of assay [9] is Serine/threonine-protein kinase pim-3 (Homo sapiens) (UniProt Q86V86). Put plainly: Inhibition of human PIM3 at 18.6 nM by HotSpot assay relative to control.
The target in assay [10] is RAC-gamma serine/threonine-protein kinase (Homo sapiens) (UniProt Q9Y243). The assay is described as follows: Inhibition of human AKT3 at 18.6 nM by HotSpot assay relative to control.
In assay [11] the target is Ribosomal protein S6 kinase alpha-5 (Homo sapiens) (UniProt O75582). The assay is described as follows: Inhibition of human RPS6KA5 at 18.6 nM by HotSpot assay relative to control.
For assay [12], the target named is Mitogen-activated protein kinase kinase kinase kinase 5 (Homo sapiens) (UniProt Q9Y4K4). Put plainly: Inhibition of human KHS at 18.6 nM by HotSpot assay relative to control.
The target of assay [13] is T3, Serine/threonine-protein kinase Nek3 (Homo sapiens) (UniProt P51956).
T3 sequence (whole entry): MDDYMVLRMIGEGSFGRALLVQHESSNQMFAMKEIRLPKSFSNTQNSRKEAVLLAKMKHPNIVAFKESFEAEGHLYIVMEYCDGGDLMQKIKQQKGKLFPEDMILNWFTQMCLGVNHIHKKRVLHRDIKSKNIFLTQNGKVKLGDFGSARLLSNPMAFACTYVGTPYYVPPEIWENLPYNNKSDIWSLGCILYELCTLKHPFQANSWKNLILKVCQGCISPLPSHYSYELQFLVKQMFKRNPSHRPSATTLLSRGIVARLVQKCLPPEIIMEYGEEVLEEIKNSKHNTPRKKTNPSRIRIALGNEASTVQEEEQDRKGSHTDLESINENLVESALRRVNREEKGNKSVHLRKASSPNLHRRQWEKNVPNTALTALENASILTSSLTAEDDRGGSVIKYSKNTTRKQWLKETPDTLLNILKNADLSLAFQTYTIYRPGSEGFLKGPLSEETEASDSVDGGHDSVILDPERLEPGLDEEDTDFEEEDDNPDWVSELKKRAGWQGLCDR
Put plainly: Inhibition of human NEK3 at 18.6 nM by HotSpot assay relative to control.

In assay [14] the target is Interleukin-1 receptor-associated kinase 1 (Homo sapiens) (UniProt P51617). Put plainly: Inhibition of human IRAK1 at 18.6 nM by HotSpot assay relative to control.
Assay [15] deals with Calcium/calmodulin-dependent protein kinase type 1B (Homo sapiens) (UniProt Q6P2M8). The assay is described as follows: Inhibition of human CAMK1b at 18.6 nM by HotSpot assay relative to control.
Calcium/calmodulin-dependent protein kinase type 1B (Homo sapiens), sequence (Q6P2M8 whole entry): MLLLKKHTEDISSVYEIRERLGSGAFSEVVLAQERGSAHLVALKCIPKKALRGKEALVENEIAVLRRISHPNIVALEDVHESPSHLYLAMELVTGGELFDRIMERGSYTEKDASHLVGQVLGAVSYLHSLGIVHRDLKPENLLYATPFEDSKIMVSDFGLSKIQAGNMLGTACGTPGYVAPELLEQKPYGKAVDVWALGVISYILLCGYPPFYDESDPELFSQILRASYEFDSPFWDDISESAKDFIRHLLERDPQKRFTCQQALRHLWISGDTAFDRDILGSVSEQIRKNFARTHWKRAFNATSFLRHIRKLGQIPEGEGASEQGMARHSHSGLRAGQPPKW

RAC-gamma serine/threonine-protein kinase (Homo sapiens), sequence (Q9Y243 whole entry): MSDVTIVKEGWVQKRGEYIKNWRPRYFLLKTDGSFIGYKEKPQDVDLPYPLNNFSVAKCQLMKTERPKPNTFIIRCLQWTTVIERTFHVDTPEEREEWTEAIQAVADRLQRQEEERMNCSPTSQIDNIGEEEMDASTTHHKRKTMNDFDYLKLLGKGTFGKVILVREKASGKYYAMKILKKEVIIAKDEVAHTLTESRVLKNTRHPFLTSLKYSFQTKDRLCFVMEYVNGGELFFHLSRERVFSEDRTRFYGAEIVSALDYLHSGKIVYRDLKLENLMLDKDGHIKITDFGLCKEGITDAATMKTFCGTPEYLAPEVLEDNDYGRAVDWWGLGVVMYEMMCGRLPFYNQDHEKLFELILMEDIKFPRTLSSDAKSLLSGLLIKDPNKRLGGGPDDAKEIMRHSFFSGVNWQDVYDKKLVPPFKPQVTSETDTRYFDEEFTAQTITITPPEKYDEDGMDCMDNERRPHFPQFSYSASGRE
Ribosomal protein S6 kinase alpha-5 (Homo sapiens), sequence (O75582 whole entry, looked up): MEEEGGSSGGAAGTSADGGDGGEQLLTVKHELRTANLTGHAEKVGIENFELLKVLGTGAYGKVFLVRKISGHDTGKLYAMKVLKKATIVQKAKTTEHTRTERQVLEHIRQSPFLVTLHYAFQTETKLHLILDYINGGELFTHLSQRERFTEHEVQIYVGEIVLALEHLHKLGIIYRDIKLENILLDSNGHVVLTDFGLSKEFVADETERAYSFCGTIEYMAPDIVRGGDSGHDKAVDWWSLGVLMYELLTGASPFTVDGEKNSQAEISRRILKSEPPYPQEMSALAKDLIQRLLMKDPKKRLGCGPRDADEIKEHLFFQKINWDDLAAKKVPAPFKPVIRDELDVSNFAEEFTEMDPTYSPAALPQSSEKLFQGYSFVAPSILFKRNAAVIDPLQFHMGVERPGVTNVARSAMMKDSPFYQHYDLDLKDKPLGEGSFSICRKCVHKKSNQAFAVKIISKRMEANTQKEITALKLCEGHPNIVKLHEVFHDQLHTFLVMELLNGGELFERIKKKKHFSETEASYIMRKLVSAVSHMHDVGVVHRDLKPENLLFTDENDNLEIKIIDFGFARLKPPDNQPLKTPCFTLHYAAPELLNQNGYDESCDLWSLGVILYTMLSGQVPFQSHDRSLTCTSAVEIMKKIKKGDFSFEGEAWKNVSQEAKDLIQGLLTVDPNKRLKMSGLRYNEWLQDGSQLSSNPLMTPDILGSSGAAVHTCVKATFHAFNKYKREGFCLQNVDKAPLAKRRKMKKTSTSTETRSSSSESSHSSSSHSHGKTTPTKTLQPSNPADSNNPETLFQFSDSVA
Serine/threonine-protein kinase SIK2 (Homo sapiens), sequence (Q9H0K1 whole entry, looked up): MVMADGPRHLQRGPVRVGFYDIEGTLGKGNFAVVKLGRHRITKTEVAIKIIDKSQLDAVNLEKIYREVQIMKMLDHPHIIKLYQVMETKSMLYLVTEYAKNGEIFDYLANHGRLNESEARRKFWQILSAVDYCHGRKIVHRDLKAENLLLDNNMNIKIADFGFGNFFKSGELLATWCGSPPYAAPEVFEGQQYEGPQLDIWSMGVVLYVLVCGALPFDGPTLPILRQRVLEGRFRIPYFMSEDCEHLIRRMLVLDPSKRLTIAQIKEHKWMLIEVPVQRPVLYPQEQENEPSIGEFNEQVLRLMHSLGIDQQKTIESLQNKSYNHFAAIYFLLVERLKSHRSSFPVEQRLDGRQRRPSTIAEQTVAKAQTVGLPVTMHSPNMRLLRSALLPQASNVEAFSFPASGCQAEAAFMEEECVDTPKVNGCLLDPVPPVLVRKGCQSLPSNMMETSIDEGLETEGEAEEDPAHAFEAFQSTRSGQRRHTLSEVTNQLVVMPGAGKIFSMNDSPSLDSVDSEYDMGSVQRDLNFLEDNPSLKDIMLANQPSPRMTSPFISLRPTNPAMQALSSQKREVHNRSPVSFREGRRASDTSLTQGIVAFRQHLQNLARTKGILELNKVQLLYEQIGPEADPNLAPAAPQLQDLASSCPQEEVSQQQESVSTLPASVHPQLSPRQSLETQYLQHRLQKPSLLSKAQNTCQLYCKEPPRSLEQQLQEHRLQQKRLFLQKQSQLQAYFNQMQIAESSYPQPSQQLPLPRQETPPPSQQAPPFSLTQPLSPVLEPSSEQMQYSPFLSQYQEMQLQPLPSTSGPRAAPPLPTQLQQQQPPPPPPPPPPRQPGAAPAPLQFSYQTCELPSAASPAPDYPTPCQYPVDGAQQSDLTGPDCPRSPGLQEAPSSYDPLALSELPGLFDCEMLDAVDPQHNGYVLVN
Interleukin-1 receptor-associated kinase 1 (Homo sapiens), sequence (P51617 whole entry, looked up): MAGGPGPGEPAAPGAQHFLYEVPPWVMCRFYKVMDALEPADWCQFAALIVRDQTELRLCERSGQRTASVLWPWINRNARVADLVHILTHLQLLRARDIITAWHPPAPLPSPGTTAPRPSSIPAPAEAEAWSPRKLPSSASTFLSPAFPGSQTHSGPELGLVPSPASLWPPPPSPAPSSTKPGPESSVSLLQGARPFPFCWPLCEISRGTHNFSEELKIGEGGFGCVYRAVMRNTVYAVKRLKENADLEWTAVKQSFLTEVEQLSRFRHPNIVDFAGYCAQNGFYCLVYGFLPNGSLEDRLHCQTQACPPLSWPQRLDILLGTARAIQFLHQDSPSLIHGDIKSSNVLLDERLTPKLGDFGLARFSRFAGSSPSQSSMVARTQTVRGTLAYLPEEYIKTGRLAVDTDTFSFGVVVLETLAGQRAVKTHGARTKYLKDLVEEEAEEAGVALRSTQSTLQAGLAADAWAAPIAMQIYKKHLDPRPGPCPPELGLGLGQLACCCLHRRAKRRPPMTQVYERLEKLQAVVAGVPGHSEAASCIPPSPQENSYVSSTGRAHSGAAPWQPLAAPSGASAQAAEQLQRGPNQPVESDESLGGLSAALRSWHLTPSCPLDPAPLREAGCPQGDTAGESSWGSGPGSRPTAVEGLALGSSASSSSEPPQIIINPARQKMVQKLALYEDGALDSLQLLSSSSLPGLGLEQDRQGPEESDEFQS
Platelet-derived growth factor receptor beta (Homo sapiens), sequence (P09619 whole entry): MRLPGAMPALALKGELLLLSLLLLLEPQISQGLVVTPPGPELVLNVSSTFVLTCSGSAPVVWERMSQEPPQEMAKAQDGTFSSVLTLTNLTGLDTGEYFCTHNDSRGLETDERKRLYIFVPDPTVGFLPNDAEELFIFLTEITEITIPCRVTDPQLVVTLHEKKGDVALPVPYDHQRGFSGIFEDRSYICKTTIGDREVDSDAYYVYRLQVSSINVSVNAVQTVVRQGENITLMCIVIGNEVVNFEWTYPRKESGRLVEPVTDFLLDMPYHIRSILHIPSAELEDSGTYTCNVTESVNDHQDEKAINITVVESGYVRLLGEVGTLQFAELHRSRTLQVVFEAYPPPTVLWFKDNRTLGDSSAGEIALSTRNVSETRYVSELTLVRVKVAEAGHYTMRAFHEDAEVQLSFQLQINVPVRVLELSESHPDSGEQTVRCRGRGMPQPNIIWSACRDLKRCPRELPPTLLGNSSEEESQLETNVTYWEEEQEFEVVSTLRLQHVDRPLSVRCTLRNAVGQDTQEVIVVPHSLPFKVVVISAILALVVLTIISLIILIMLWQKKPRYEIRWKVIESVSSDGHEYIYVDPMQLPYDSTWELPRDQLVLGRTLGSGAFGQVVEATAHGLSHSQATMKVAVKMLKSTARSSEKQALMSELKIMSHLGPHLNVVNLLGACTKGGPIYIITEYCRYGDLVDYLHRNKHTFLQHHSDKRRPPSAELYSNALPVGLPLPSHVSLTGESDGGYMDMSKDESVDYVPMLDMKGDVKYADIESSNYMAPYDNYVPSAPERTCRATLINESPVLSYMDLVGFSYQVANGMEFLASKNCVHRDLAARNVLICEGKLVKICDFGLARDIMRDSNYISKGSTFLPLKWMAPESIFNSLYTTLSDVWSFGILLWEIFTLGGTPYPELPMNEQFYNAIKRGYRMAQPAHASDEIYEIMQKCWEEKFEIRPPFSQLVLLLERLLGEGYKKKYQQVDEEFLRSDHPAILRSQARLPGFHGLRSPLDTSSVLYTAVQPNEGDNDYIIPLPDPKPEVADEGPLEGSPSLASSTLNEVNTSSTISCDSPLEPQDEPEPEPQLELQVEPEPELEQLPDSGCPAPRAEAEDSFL

`C[C@@]1(C(=O)Nc2ccc(F)nc2)CCCN1c1nc(Nc2cc(C3CC3)n[nH]2)c2cccn2n1`: the inhibition is 2.34% in [1]; 1.78% in [2]; 19.1% in assay [3]; -5.56% in assay [4]; 2.22% in assay [5]; -6.97% in [6]. Also, the inhibition in assay [7] came out at 10.8%.

Regarding `C[C@]1(O)C[C@@H](c2nc(-c3ccc4ccc(-c5ccccc5)nc4c3)c3c(N)nccn32)C1`, the inhibition in assay [8] was -9.8%; in [9], 20.9%; in assay [10] it was -1.08%; in assay [11] it was -5.75%; in assay [12], 12.1%; in [13] it was 7.82%. For the same molecule, the inhibition in assay [14] is -8.8%; in assay [15] it was -4.62%.
